From PubChem BioAssay (NCI)
Where “and” joins values, the source holds several entries; their conditions need not be identical. Equal values may be shown once.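 Five compound concentrations were applied to cells in 96-well plates for 48 hours; endpoints were derived by simple linear interpolation of the resulting dose-response curve. Abbreviation: GI50, concentration required for 50% inhibition of growth. Definition used: TGI = concentration required for complete inhibition of growth.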

Assays:
Assay in all cases: NCI anticancer screen, dose series, 48 h
786-0 renal = test system: 786-0 renal
A498 renal = test system: A498 renal
A549 NSCLC = test system: A549 NSCLC
ACHN renal = test system: ACHN renal
BT-549 breast = test system: BT-549 breast
CAKI-1 renal = test system: CAKI-1 renal
CCRF-CEM leukemia = test system: CCRF-CEM leukemia
COLO 205 colon = test system: COLO 205 colon
DU-145 prostate = test system: DU-145 prostate
EKVX NSCLC = test system: EKVX NSCLC
HCC-2998 colon = test system: HCC-2998 colon
HCT-116 colon = test system: HCT-116 colon
HCT-15 colon = test system: HCT-15 colon
HL-60(TB) leukemia = test system: HL-60(TB) leukemia
HOP-62 NSCLC = test system: HOP-62 NSCLC
HOP-92 NSCLC = test system: HOP-92 NSCLC
HS 578T breast = test system: HS 578T breast
HT29 colon = test system: HT29 colon
IGROV1 ovarian = test system: IGROV1 ovarian
K-562 leukemia = test system: K-562 leukemia
KM12 colon = test system: KM12 colon
LOX IMVI melanoma = test system: LOX IMVI melanoma
M14 melanoma = test system: M14 melanoma
MALME-3M melanoma = test system: MALME-3M melanoma
MCF7 breast = test system: MCF7 breast
MDA-MB-231 breast = test system: MDA-MB-231 breast
MDA-MB-435 = test system: MDA-MB-435
MDA-N = test system: MDA-N
MOLT-4 leukemia = test system: MOLT-4 leukemia
NCI-H226 lung = test system: NCI-H226 lung
NCI-H23 lung = test system: NCI-H23 lung
NCI-H460 lung = test system: NCI-H460 lung
NCI-H522 lung = test system: NCI-H522 lung
NCI/ADR-RES ovarian = test system: NCI/ADR-RES ovarian
OVCAR-3 ovarian = test system: OVCAR-3 ovarian
OVCAR-4 ovarian = test system: OVCAR-4 ovarian
OVCAR-5 ovarian = test system: OVCAR-5 ovarian
OVCAR-8 ovarian = test system: OVCAR-8 ovarian
PC-3 prostate = test system: PC-3 prostate
RPMI-8226 leukemia = test system: RPMI-8226 leukemia
RXF 393 renal = test system: RXF 393 renal
SF-268 CNS = test system: SF-268 CNS
SF-295 CNS = test system: SF-295 CNS
SF-539 CNS = test system: SF-539 CNS
SK-MEL-2 melanoma = test system: SK-MEL-2 melanoma
SK-MEL-28 melanoma = test system: SK-MEL-28 melanoma
SK-MEL-5 melanoma = test system: SK-MEL-5 melanoma
SK-OV-3 ovarian = test system: SK-OV-3 ovarian
SN12C renal = test system: SN12C renal
SNB-19 CNS = test system: SNB-19 CNS
SNB-75 CNS = test system: SNB-75 CNS
SR leukemia = test system: SR leukemia
SW-620 colon = test system: SW-620 colon
T-47D breast = test system: T-47D breast
TK-10 renal = test system: TK-10 renal
U251 CNS = test system: U251 CNS
UACC-257 melanoma = test system: UACC-257 melanoma
UACC-62 melanoma = test system: UACC-62 melanoma
UO-31 renal = test system: UO-31 renal

Compound: C=C1C[C@@H](O)[C@@H](Br)C(C)(C)[C@]12CCC(C)(Br)C(Cl)C2 (some centres undefined)
- GI50 (786-0 renal): 17.9 µM
- TGI (786-0 renal): > 50 µM and 33.7 µM
- GI50 (A498 renal): 18 µM
- TGI (A498 renal): > 50 µM and 31.9 µM
- GI50 (A549 NSCLC): 16.7 µM
- TGI (A549 NSCLC): > 50 µM and 37.7 µM
- GI50 (ACHN renal): 18.5 µM
- TGI (ACHN renal): > 50 µM and 34.1 µM
- GI50 (BT-549 breast): 18.9 µM
- TGI (BT-549 breast): > 50 µM and 38.3 µM
- GI50 (CAKI-1 renal): 18.3 µM
- TGI (CAKI-1 renal): > 50 µM and 37.2 µM
- GI50 (CCRF-CEM leukemia): 1.05 µM
- TGI (CCRF-CEM leukemia): > 50 µM and 14.4 µM
- GI50 (COLO 205 colon): 0.627 µM
- TGI (COLO 205 colon): 1.71 µM and 2.09 µM
- GI50 (DU-145 prostate): 18.7 µM
- TGI (DU-145 prostate): > 50 µM and 36 µM
- GI50 (EKVX NSCLC): 2.54 µM
- TGI (EKVX NSCLC): 50 µM and 15.2 µM
- GI50 (HCC-2998 colon): 17.1 µM
- TGI (HCC-2998 colon): > 50 µM and 30.8 µM
- GI50 (HCT-116 colon): 19.3 µM
- TGI (HCT-116 colon): > 50 µM and 36.2 µM
- GI50 (HCT-15 colon): 23.7 µM
- TGI (HCT-15 colon): > 50 µM and 52.4 µM
- TGI (HL-60(TB) leukemia): 11.8 µM
- GI50 (HOP-62 NSCLC): 15.4 µM
- TGI (HOP-62 NSCLC): > 50 µM and 35.9 µM
- GI50 (HOP-92 NSCLC): 20.3 µM
- TGI (HOP-92 NSCLC): > 50 µM and 39.3 µM
- GI50 (HS 578T breast): 29.9 µM
- TGI (HS 578T breast): > 50 µM and 96.4 µM
- GI50 (HT29 colon): 1.95 µM
- TGI (HT29 colon): 50 µM and 16.4 µM
- GI50 (IGROV1 ovarian): 18 µM
- TGI (IGROV1 ovarian): > 50 µM and 36.1 µM
- GI50 (K-562 leukemia): 19.2 µM
- TGI (K-562 leukemia): > 50 µM and 42.4 µM
- GI50 (KM12 colon): 0.28 µM
- TGI (KM12 colon): 16.7 µM and 10.5 µM
- GI50 (LOX IMVI melanoma): 18.1 µM
- TGI (LOX IMVI melanoma): > 50 µM and 35 µM
- GI50 (M14 melanoma): 17.9 µM
- TGI (M14 melanoma): > 50 µM and 34.6 µM
- GI50 (MALME-3M melanoma): 16.5 µM
- TGI (MALME-3M melanoma): > 50 µM and 33.4 µM
- GI50 (MCF7 breast): 16.8 µM
- TGI (MCF7 breast): > 50 µM and 31.1 µM
- GI50 (MDA-MB-231 breast): 16.8 µM
- TGI (MDA-MB-231 breast): > 50 µM and 31.5 µM
- GI50 (MDA-MB-435): 18 µM
- TGI (MDA-MB-435): > 50 µM and 35.8 µM
- GI50 (MDA-N): 17.7 µM
- TGI (MDA-N): > 50 µM and 36.2 µM
- GI50 (MOLT-4 leukemia): 14.2 µM
- TGI (MOLT-4 leukemia): > 50 µM and 34.5 µM
- GI50 (NCI-H226 lung): 15.6 µM
- TGI (NCI-H226 lung): 50 µM and 29.9 µM
- GI50 (NCI-H23 lung): 18.7 µM
- TGI (NCI-H23 lung): > 50 µM and 37.5 µM
- GI50 (NCI-H460 lung): 18 µM
- TGI (NCI-H460 lung): > 50 µM and 32.4 µM
- GI50 (NCI-H522 lung): 17.4 µM
- TGI (NCI-H522 lung): > 50 µM and 32.1 µM
- GI50 (NCI/ADR-RES ovarian): 22.5 µM
- TGI (NCI/ADR-RES ovarian): > 50 µM and 56 µM
- GI50 (OVCAR-3 ovarian): 17.4 µM
- TGI (OVCAR-3 ovarian): > 50 µM and 33.7 µM
- GI50 (OVCAR-4 ovarian): 15.7 µM
- TGI (OVCAR-4 ovarian): > 50 µM and 32.9 µM
- GI50 (OVCAR-5 ovarian): 1.23 µM
- TGI (OVCAR-5 ovarian): 26.6 µM and 8.52 µM
- GI50 (OVCAR-8 ovarian): 21.7 µM
- TGI (OVCAR-8 ovarian): > 50 µM and 50.1 µM
- GI50 (PC-3 prostate): 0.107 µM
- TGI (PC-3 prostate): 10.8 µM and 2.29 µM
- GI50 (RPMI-8226 leukemia): 12.6 µM
- TGI (RPMI-8226 leukemia): 50 µM and 33.3 µM
- GI50 (RXF 393 renal): 18.5 µM
- TGI (RXF 393 renal): > 50 µM and 37.2 µM
- GI50 (SF-268 CNS): 19.1 µM
- TGI (SF-268 CNS): > 50 µM and 35.8 µM
- GI50 (SF-295 CNS): 17.9 µM
- TGI (SF-295 CNS): > 50 µM and 34.9 µM
- GI50 (SF-539 CNS): 16.9 µM
- TGI (SF-539 CNS): > 50 µM and 31.2 µM
- GI50 (SK-MEL-2 melanoma): 16.5 µM
- TGI (SK-MEL-2 melanoma): > 50 µM and 30.4 µM
- GI50 (SK-MEL-28 melanoma): 18 µM
- TGI (SK-MEL-28 melanoma): > 50 µM and 36.8 µM
- GI50 (SK-MEL-5 melanoma): 16.7 µM
- TGI (SK-MEL-5 melanoma): > 50 µM and 30.3 µM
- GI50 (SK-OV-3 ovarian): 24 µM
- TGI (SK-OV-3 ovarian): > 50 µM and 64.6 µM
- GI50 (SN12C renal): 16.5 µM
- TGI (SN12C renal): > 50 µM and 31.3 µM
- GI50 (SNB-19 CNS): 17.6 µM
- TGI (SNB-19 CNS): > 50 µM and 33.2 µM
- GI50 (SNB-75 CNS): 18.5 µM
- TGI (SNB-75 CNS): > 50 µM and 34.6 µM
- GI50 (SR leukemia): 18.9 µM
- TGI (SR leukemia): > 50 µM and 37.2 µM
- GI50 (SW-620 colon): 15.2 µM
- TGI (SW-620 colon): > 50 µM and 33 µM
- GI50 (T-47D breast): 19 µM
- TGI (T-47D breast): > 50 µM and 49.3 µM
- GI50 (TK-10 renal): 15.7 µM
- TGI (TK-10 renal): > 50 µM and 29.8 µM
- GI50 (U251 CNS): 17.7 µM
- TGI (U251 CNS): > 50 µM and 31.5 µM
- GI50 (UACC-257 melanoma): 18.6 µM
- TGI (UACC-257 melanoma): > 50 µM and 34.2 µM
- GI50 (UACC-62 melanoma): 15.6 µM
- TGI (UACC-62 melanoma): > 50 µM and 29.3 µM
- GI50 (UO-31 renal): 25.4 µM
- TGI (UO-31 renal): > 50 µM and 43.7 µM

Compound: O=S(=O)(O)c1ccc(Nc2ccnc3ccccc23)cc1
- TGI (786-0 renal): > 100 µM
- TGI (A498 renal): > 100 µM
- TGI (A549 NSCLC): > 100 µM
- TGI (ACHN renal): > 100 µM
- TGI (BT-549 breast): > 100 µM
- TGI (CAKI-1 renal): > 100 µM
- TGI (CCRF-CEM leukemia): > 100 µM
- TGI (COLO 205 colon): > 100 µM
- TGI (DU-145 prostate): > 100 µM
- TGI (EKVX NSCLC): > 100 µM
- TGI (HCC-2998 colon): > 100 µM
- TGI (HCT-116 colon): > 100 µM
- TGI (HCT-15 colon): > 100 µM
- TGI (HL-60(TB) leukemia): > 100 µM
- TGI (HOP-62 NSCLC): > 100 µM
- TGI (HOP-92 NSCLC): > 100 µM
- TGI (HS 578T breast): > 100 µM
- TGI (HT29 colon): > 100 µM
- TGI (IGROV1 ovarian): > 100 µM
- TGI (K-562 leukemia): > 100 µM
- TGI (KM12 colon): > 100 µM
- TGI (LOX IMVI melanoma): > 100 µM
- TGI (M14 melanoma): > 100 µM
- TGI (MALME-3M melanoma): > 100 µM
- TGI (MCF7 breast): > 100 µM
- TGI (MDA-MB-231 breast): > 100 µM
- TGI (MDA-MB-435): > 100 µM
- TGI (MDA-N): > 100 µM
- TGI (MOLT-4 leukemia): > 100 µM
- TGI (NCI-H226 lung): > 100 µM
- TGI (NCI-H23 lung): > 100 µM
- TGI (NCI-H522 lung): > 100 µM
- TGI (NCI/ADR-RES ovarian): > 100 µM
- TGI (OVCAR-4 ovarian): > 100 µM
- TGI (OVCAR-5 ovarian): > 100 µM
- TGI (OVCAR-8 ovarian): > 100 µM
- TGI (PC-3 prostate): > 100 µM
- TGI (RPMI-8226 leukemia): > 100 µM
- TGI (RXF 393 renal): > 100 µM
- TGI (SF-268 CNS): > 100 µM
- TGI (SF-295 CNS): > 100 µM
- TGI (SF-539 CNS): > 100 µM
- TGI (SK-MEL-2 melanoma): > 100 µM
- TGI (SK-MEL-28 melanoma): > 100 µM
- TGI (SK-MEL-5 melanoma): > 100 µM
- TGI (SK-OV-3 ovarian): > 100 µM
- TGI (SN12C renal): > 100 µM
- TGI (SNB-19 CNS): > 100 µM
- TGI (SNB-75 CNS): > 100 µM
- TGI (SR leukemia): > 100 µM
- TGI (SW-620 colon): > 100 µM
- TGI (T-47D breast): > 100 µM
- TGI (TK-10 renal): > 100 µM
- TGI (U251 CNS): > 100 µM
- TGI (UACC-257 melanoma): > 100 µM
- TGI (UACC-62 melanoma): > 100 µM
- TGI (UO-31 renal): > 100 µM
